According to PMC10866013 (Nature, 2023):

Tested on: MRSA USA300
Type: cell-based, Staphylococcus aureus
Details: vs S. aureus RN4220

CC1(C)S[C@@H]2[C@H](NC(=O)[C@H](N)c3ccccc3)C(=O)N2[C@H]1C(=O)O [ampicillin]
MIC increase in MRSA USA300 relative to the methicillin-susceptible strain: at least 16 fold
